According to paper PMC7619385 (ACS infectious diseases, 2025):
Read-outs that look alike come from different tables or passages of the source.

Columns and labels:
[1] = target: T1, LmxCLK1 (Leishmania mexicana, UniProt E9AMP2); experiment: biochemical; type: binding
T1 sequence (E9AMP2 1-422): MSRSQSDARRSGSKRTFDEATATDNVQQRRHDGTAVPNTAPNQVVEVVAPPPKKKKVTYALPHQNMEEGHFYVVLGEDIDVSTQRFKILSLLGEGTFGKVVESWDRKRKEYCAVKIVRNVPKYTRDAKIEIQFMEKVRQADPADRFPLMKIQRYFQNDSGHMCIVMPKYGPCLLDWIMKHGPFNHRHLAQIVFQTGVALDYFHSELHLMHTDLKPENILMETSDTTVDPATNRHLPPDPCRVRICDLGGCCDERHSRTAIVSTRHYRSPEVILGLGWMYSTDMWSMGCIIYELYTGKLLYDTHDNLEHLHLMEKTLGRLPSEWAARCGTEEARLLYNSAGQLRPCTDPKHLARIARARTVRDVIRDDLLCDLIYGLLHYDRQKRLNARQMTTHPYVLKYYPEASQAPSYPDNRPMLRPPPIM

[2] = target: NLuc::LmxCLK1 (Leishmania mexicana, UniProt E9AMP2); experiment: cell-based; type: cell-based; conditions: for Target occupancy Run 1 / Target occupancy Run 2 / Target occupancy Average: 10 µM compound, tracer SV366, promastigotes; for Target occupancy Average: mean of two experiments
Experimental: All compounds were tested at a fixed concentration of 10 µM to enable direct comparison of their target occupancy in live cells.
Serially diluted probes (5 µL) were added to 85 µL of cells in culture media or 85 µL of purified protein. Final well volumes were adjusted to 100 µL with sterile Opti-MEM™ I Reduced Serum Medium (Thermo-Scientific) – for wells containing cells; or Kinase Buffer - for wells containing purified protein. For tracer displacement assays, samples were prepared as above, but final volume was brought to 100 µL by addition of vehicle or serially-diluted test compounds. Final DMSO concentration in these assays was 1%. […] Light emissions at 460+10 nm (BRET donor) and at 610+20 nm (BRET acceptor) were sequentially recorded (integration time = 0.5 s, gain = 3600) using a luminometer (BMG LABTECH Clariostar or Biotek Synergy HT). BRET values are reported in milli-BRET (mBRET) units (mBU), obtained by dividing the acceptor luminescence by the donor luminescence and multiplying the result by a factor of 1,000. BRET values were converted to blank-corrected probe occupancies (%) according to equation [1]: (1) Probeoccupancy(%)=X−Z/Y−Z×100 where X = mBRET value in the presence of the test compound and the probe, Y = mBRET value in the presence of probe only, and Z = mBRET value in the absence of probe and test compound. […]

[3] = DSF, 10 µM compound, 2 µM LmxCLK1, Run 1
[4] = DSF, 10 µM compound, 2 µM LmxCLK1, Run 2
[5] = DSF, 10 µM compound, 2 µM LmxCLK1, mean of two runs
[6] = DSF, 10 µM compound, 2 µM LmxCLK1, Run 1, read-out: ΔTm Run 1
[7] = DSF, 10 µM compound, 2 µM LmxCLK1, Run 2, read-out: ΔTm Run 2
[8] = DSF, 10 µM compound, 2 µM LmxCLK1, mean of two runs, read-out: ΔTm Average
[9] = read-out: Target occupancy Average
[10] = read-out: Target occupancy Run 1
[11] = read-out: Target occupancy Run 2

| Structure (SMILES) | ΔTm Run 1 [1, 3] [°C] | ΔTm Run 2 [1, 4] [°C] | ΔTm Average [1, 5] [°C] | Target occupancy Run 1 [2] [%] | Target occupancy Run 2 [2] [%] | Target occupancy Average [2] [%] | ΔTm at 10 µM [1, 6] [°C] | ΔTm at 10 µM [1, 7] [°C] | ΔTm at 10 µM [1, 8] [°C] | receptor occupancy at 10 µM [2, 9] [%] | receptor occupancy at 10 µM [2, 10] [%] | receptor occupancy at 10 µM [2, 11] [%] | ΔTm Average [1] | ΔTm Run 1 [1] | ΔTm Run 2 [1] |
| --- | --- | --- | --- | --- | --- | --- | --- | --- | --- | --- | --- | --- | --- | --- | --- |
| C#Cc1cccc(Nc2ncnc3cc(OCCOC)c(OCCOC)cc23)c1.Cl [Erlotinib HCl (OSI-744)] | 0.1 | 0.1 | 0.1 | -0.1 | -7.3 | -3.7 | – | – | – | – | – | – | – | – | – |
| Cl.O=S(=O)(c1cccc2cnccc12)N1CCCNCC1 [Fasudil (HA-1077) HCl] | 0.9 | 0.6 | 0.7 | 6.9 | -10.2 | -1.7 | – | – | – | – | – | – | – | – | – |
| O=C(Nc1nc2cccc(-c3ccc(CN4CCS(=O)(=O)CC4)cc3)n2n1)C1CC1 [Filgotinib (GLPG0634)] | – | – | – | – | – | – | 0.2 | -0.4 | -0.1 | -15.3 | -9.1 | -21.6 | – | – | – |
| CN1CC[C@H](c2c(O)cc(O)c3c(=O)cc(-c4ccccc4Cl)oc23)[C@H](O)C1.Cl [Flavopiridol HCl] | 0.1 | -0.1 | 0.0 | 1.6 | -3.3 | -0.8 | – | – | – | – | – | – | – | – | – |
| COc1cc(Nc2ncc(F)c(Nc3ccc4c(n3)N(COP(=O)(O)O)C(=O)C(C)(C)O4)n2)cc(OC)c1OC [Fostamatinib (R788)] | 0.2 | 0.2 | 0.2 | 0.9 | -17.9 | -8.5 | – | – | – | – | – | – | – | – | – |
| CC(C)NC[C@@H](C(=O)N1CCN(c2ncnc3c2[C@H](C)C[C@H]3O)CC1)c1ccc(Cl)cc1 [GDC-0068] | – | – | – | – | – | – | 0.4 | 0 | 0.2 | 0.3 | 6 | -5.5 | – | – | – |
| CN(C)CCCn1cc(C2=C(c3c[nH]c4ccccc34)C(=O)NC2=O)c2ccccc21 [GF109203X] | – | – | – | -5.7 | -5.0 | -5.4 | – | – | – | – | – | – | 0.2 °C | 0.3 °C | 0.1 °C |
| CCNc1nc(Nc2cc(F)c(C(=O)N3CCOCC3)cc2OC)ncc1C(F)(F)F [GNE-7915] | – | – | – | – | – | – | -0.1 | -0.5 | -0.3 | -3.7 | -10.5 | 3.1 | – | – | – |
| CNc1nc(Nc2cnn([C@H]3CCN(C4COC4)C[C@@H]3F)c2Cl)ncc1C(F)(F)F [GNE-9605] | – | – | – | 3.1 | -5.2 | -1.1 | – | – | – | – | – | – | -0.4 | -0.2 | -0.5 |
| NC(=O)c1cccc(-c2cc(Nc3ccc(OC(F)(F)F)cc3)ncn2)c1 [GNF-2] | – | – | – | -8.5 | -14.2 | -11.3 | – | – | – | – | – | – | -0.2 | -0.2 | -0.3 |
| O=C(NCCO)c1cccc(-c2cc(Nc3ccc(OC(F)(F)F)cc3)ncn2)c1 [GNF-5] | – | – | – | -7.9 | -2.3 | -5.1 | – | – | – | – | – | – | -0.3 | -0.2 | -0.3 |
| O=C(O)c1ccc(-c2c[nH]c3ncc(-c4ccccc4)cc23)cc1C1CCCC1 [GSK650394] | – | – | – | – | – | – | -0.4 | -0.3 | -0.3 | -8.8 | -24.3 | 6.7 | – | – | – |
| O=C1NC(=O)/C(=C/c2ccc3nccc(-c4ccncc4)c3c2)S1 [GSK1059615] | – | – | – | – | – | – | 0.3 | -0.2 | 0 | -2.8 | -4.2 | -1.5 | – | – | – |
